Results published in the supplement of paper PMC10733146.

Columns and labels:
Assay in all cases: viability relative to DMSO control (fraction); higher = less drug effect (more viable cells)
Settings in all cases: 48 h
[1] = compound: Cc1ccc(NC(=O)c2ccc(CN3CCN(C)CC3)cc2)cc1Nc1nccc(-c2cccnc2)n1 [Imatinib]
Procedure, shortened: (§1)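 Cells were incubated for 48 h at 37 °C and 5% CO2 in RPMI-1640 with penicillin/streptomycin, L-glutamine and human serum, at 4 × 10^4 cells per well in 384-well plates with compounds pre-plated at five concentrations, one well each. These were primary mononuclear tumour cells, fresh or cryopreserved, Ficoll-isolated from blood or bone marrow or obtained from processed lymph node. Viability values are CellTiter-Glo luminescence relative to the median of 16 inner DMSO wells.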

[2] = compound: CC#CC(=O)N1CC[C@@H](n2c(=O)n(-c3ccc(Oc4ccccc4)cc3)c3c(N)ncnc32)C1 [ONO-4059]
Procedure, shortened: as §1

[3] = compound: CC[C@H](NC(=O)[C@H](C)NC)C(=O)N1C[C@@H](O)C[C@H]1Cc1c(-c2[nH]c3cc(F)ccc3c2C[C@@H]2C[C@H](O)CN2C(=O)[C@H](CC)NC(=O)[C@H](C)NC)[nH]c2cc(F)ccc12 [Birinapant]
Procedure, shortened: as §1

[4] = compound: CN(C)C(=O)c1cc2cnc(Nc3ccc(N4CCNCC4)cn3)nc2n1C1CCCC1 [Ribociclib]
Procedure, shortened: as §1

[5] = compound: COC1=CC(c2cc3ccccc3[nH]2)=N/C1=C\c1[nH]c(C)cc1C [Obatoclax mesylate]
Procedure, shortened: as §1

[6] = compound: COc1c(Cl)cc2c([nH]c3cnccc32)c1NC(=O)c1cccnc1C [MLN-120B]
Procedure, shortened: as §1

[7] = compound: Cc1cn(-c2cc(NC(=O)c3ccc(C)c(Nc4nccc(-c5cccnc5)n4)c3)cc(C(F)(F)F)c2)cn1 [Nilotinib]
Procedure, shortened: as §1

[8] = compound: Cc1cc(Nc2cc(N3CCN(C)CC3)nc(Sc3ccc(NC(=O)C4CC4)cc3)n2)n[nH]1 [Tozasertib]
Procedure, shortened: as §1

[9] = compound: C#CCC(Cc1cnc2nc(N)nc(N)c2n1)c1ccc(C(=O)N[C@@H](CCC(=O)O)C(=O)O)cc1 [Pralatrexate]
Procedure, shortened: as §1

[10] = compound: CC(C)(C)OC(=O)Nc1ccc(-c2cc(C(=O)NCCCCCCC(=O)NO)no2)cc1
Procedure, shortened: as §1

[11] = compound: CCCS(=O)(=O)Nc1ccc(F)c(C(=O)c2c[nH]c3ncc(-c4ccc(Cl)cc4)cc23)c1F [Vemurafenib]
Procedure, shortened: as §1

[12] = compound: CCOc1cc(C(=O)N2CCC(N3CCN(C)CC3)CC2)ccc1Nc1ncc2c(n1)N(C1CCCC1)c1ccccc1C(=O)N2C [ERK5-IN-1]
Procedure, shortened: as §1

[13] = compound: CC[C@@H]1C(=O)N(C)c2cnc(Nc3ccc(C(=O)N[C@H]4CC[C@H](N5CCN(CC6CC6)CC5)CC4)cc3OC)nc2N1C(C)C [BI6727]
Procedure, shortened: as §1

[14] = compound: CC[C@]1(O)C[C@H]2CN(CCc3c([nH]c4ccccc34)[C@@](C(=O)OC)(c3cc4c(cc3OC)N(C=O)[C@H]3[C@@](O)(C(=O)OC)[C@H](OC(C)=O)[C@]5(CC)C=CCN6CC[C@]43[C@@H]65)C2)C1 [Vincristine]
Procedure, shortened: as §1

[15] = compound: Cc1[nH]c2ccccc2c1CCNCc1ccc(/C=C/C(=O)NO)cc1 [Panobinostat]
Procedure, shortened: as §1

[16] = compound: NC(=O)Nc1cc(-c2cccc(F)c2)sc1C(=O)N[C@H]1CCCNC1 [AZD7762]
Procedure, shortened: as §1

[17] = compound: Nc1nc(Cl)nc2c1ncn2[C@H]1C[C@H](O)[C@@H](CO)O1 [Cladribine]
Procedure, shortened: as §1

[18] = compound: O=C(CCCCCCC(=O)Nc1ccccc1)NO [Vorinostat]
Procedure, shortened: as §1

[19] = compound: O=C(NCC1(c2nc(-c3ccccc3)cs2)CCOCC1)c1cccc(-c2noc(C(F)(F)F)n2)c1 [TMP269]
Procedure, shortened: as §1

[20] = compound: OC[C@H]1O[C@@H](n2cnc3c2N=CNC[C@H]3O)C[C@@H]1O [Pentostatin]
Procedure, shortened: as §1

Test System: primary AML patient cells (S044)
- viability ([1]; 0.08 µM): 1.06
- viability ([1]; 0.4 µM): 1
- viability ([1]; 2 µM): 0.924
- viability ([1]; 10 µM): 0.823

Test System: primary AML patient cells (S054)
- viability ([1]; 0.016 µM): 1.05
- viability ([1]; 0.08 µM): 1.05
- viability ([1]; 0.4 µM): 1
- viability ([1]; 2 µM): 0.962
- viability ([1]; 10 µM): 0.807

Test System: primary AML patient cells (S007)
- viability ([2]; 0.0016 µM): 0.967
- viability ([2]; 0.008 µM): 0.928
- viability ([2]; 0.04 µM): 0.962
- viability ([2]; 0.2 µM): 1.03
- viability ([2]; 1 µM): 0.804
- viability ([3]; 0.0008 µM): 0.866
- viability ([3]; 0.004 µM): 0.744
- viability ([3]; 0.02 µM): 0.573
- viability ([3]; 0.1 µM): 0.384
- viability ([3]; 0.5 µM): 0.321
- viability ([4]; 0.024 µM): 0.949
- viability ([4]; 0.12 µM): 0.904
- viability ([4]; 0.6 µM): 0.766
- viability ([4]; 3 µM): 0.308
- viability ([5]; 0.024 µM): 0.717
- viability ([5]; 0.12 µM): 0.684
- viability ([5]; 0.6 µM): 0.659
- viability ([5]; 3 µM): 0.254
- viability ([5]; 15 µM): 0.0248
- viability ([6]; 0.024 µM): 0.816
- viability ([6]; 0.12 µM): 0.781
- viability ([6]; 0.6 µM): 0.728
- viability ([6]; 3 µM): 0.605
- viability ([6]; 15 µM): 0.375
- viability ([1]; 0.016 µM): 1.16
- viability ([1]; 0.08 µM): 0.987
- viability ([1]; 0.4 µM): 1.08
- viability ([1]; 2 µM): 0.765
- viability ([1]; 10 µM): 0.319
- viability ([7]; 0.016 µM): 1.19
- viability ([7]; 0.08 µM): 1.23
- viability ([7]; 0.4 µM): 1.24
- viability ([7]; 2 µM): 1.04
- viability ([7]; 10 µM): 1.31

Test System: primary AML patient cells (S027)
- viability ([2]; 0.0016 µM): 0.958
- viability ([2]; 0.008 µM): 1.06
- viability ([2]; 0.04 µM): 0.945
- viability ([2]; 0.2 µM): 0.943
- viability ([2]; 1 µM): 1.01
- viability ([4]; 0.024 µM): 1.02
- viability ([4]; 0.12 µM): 1.03
- viability ([4]; 0.6 µM): 1.03
- viability ([4]; 3 µM): 0.938
- viability ([4]; 15 µM): 0.832
- viability ([8]; 0.024 µM): 1.01
- viability ([8]; 0.12 µM): 0.906
- viability ([8]; 0.6 µM): 0.93
- viability ([8]; 3 µM): 0.881
- viability ([1]; 0.016 µM): 1.17
- viability ([1]; 0.08 µM): 1.17
- viability ([1]; 0.4 µM): 1.18
- viability ([1]; 10 µM): 1.05

Test System: primary DLBCL patient cells (S049)
- viability ([9]; 0.024 µM): 1.02
- viability ([9]; 0.12 µM): 0.803
- viability ([9]; 0.6 µM): 0.897
- viability ([9]; 3 µM): 0.899
- viability ([9]; 15 µM): 0.928
- viability ([2]; 0.0016 µM): 0.823
- viability ([2]; 0.008 µM): 0.761
- viability ([2]; 0.04 µM): 0.687
- viability ([2]; 0.2 µM): 0.716
- viability ([2]; 1 µM): 0.649
- viability ([10]; 0.024 µM): 0.925
- viability ([10]; 0.12 µM): 0.678
- viability ([10]; 0.6 µM): 0.327
- viability ([10]; 3 µM): 0.0379
- viability ([10]; 15 µM): 0.0222
- viability ([11]; 0.024 µM): 0.847
- viability ([11]; 0.12 µM): 0.935
- viability ([11]; 0.6 µM): 0.934
- viability ([11]; 3 µM): 0.957
- viability ([11]; 15 µM): 0.911
- viability ([12]; 0.024 µM): 1.04
- viability ([12]; 0.12 µM): 1.04
- viability ([12]; 0.6 µM): 0.717
- viability ([12]; 3 µM): 0.177
- viability ([12]; 15 µM): 0.045
- viability ([13]; 0.024 µM): 0.902
- viability ([13]; 0.12 µM): 0.898
- viability ([13]; 0.6 µM): 0.711
- viability ([13]; 3 µM): 0.228
- viability ([13]; 15 µM): 0.0414
- viability ([14]; 0.016 µM): 0.123
- viability ([14]; 0.08 µM): 0.101
- viability ([14]; 0.4 µM): 0.104
- viability ([14]; 2 µM): 0.132
- viability ([14]; 10 µM): 0.121
- viability ([4]; 0.024 µM): 1
- viability ([4]; 0.12 µM): 1.02
- viability ([4]; 0.6 µM): 0.976
- viability ([4]; 3 µM): 0.752
- viability ([4]; 15 µM): 0.29
- viability ([5]; 0.024 µM): 0.827
- viability ([5]; 0.12 µM): 0.773
- viability ([5]; 0.6 µM): 0.538
- viability ([5]; 3 µM): 0.343
- viability ([5]; 15 µM): 0.0387
- viability ([6]; 0.024 µM): 0.954
- viability ([6]; 0.12 µM): 0.902
- viability ([6]; 0.6 µM): 0.946
- viability ([6]; 3 µM): 0.868
- viability ([6]; 15 µM): 0.741
- viability ([15]; 0.00064 µM): 1.09
- viability ([15]; 0.0032 µM): 0.896
- viability ([15]; 0.016 µM): 0.0566
- viability ([15]; 0.08 µM): 0.0257
- viability ([15]; 0.4 µM): 0.0265
- viability ([16]; 0.024 µM): 0.697
- viability ([16]; 0.12 µM): 0.337
- viability ([16]; 0.6 µM): 0.277
- viability ([16]; 3 µM): 0.344
- viability ([16]; 15 µM): 0.163
- viability ([17]; 0.024 µM): 0.918
- viability ([17]; 0.12 µM): 0.853
- viability ([17]; 0.6 µM): 0.512
- viability ([17]; 3 µM): 0.399
- viability ([17]; 15 µM): 0.305
- viability ([18]; 0.016 µM): 0.996
- viability ([18]; 0.08 µM): 0.899
- viability ([18]; 0.4 µM): 0.797
- viability ([18]; 2 µM): 0.0724
- viability ([18]; 10 µM): 0.0247
- viability ([19]; 0.024 µM): 1.03
- viability ([19]; 0.12 µM): 1.08
- viability ([19]; 0.6 µM): 1.1
- viability ([19]; 3 µM): 1.01
- viability ([19]; 15 µM): 0.961
- viability ([20]; 0.03 µM): 1.09
- viability ([20]; 0.15 µM): 0.953
- viability ([20]; 0.75 µM): 1.02
- viability ([20]; 3.75 µM): 0.907
- viability ([20]; 18.76 µM): 0.839
